# Assay results reported in patent US12569453B2, “Use of tapinarof for the treatment of atopic dermatitis” (Dermavant Sciences GmbH, priority 2018, dated 2026).
# Tested on: adolescent and adult subjects with AD
# Experiment: Phase II clinical study in AD: efficacy and subject-reported outcomes
# Type: in vivo, human
# Conditions: for itch reduction in weekly average NRS (median): Week 4; for probability of achieving EASI75 / probability of achieving IGA treatment success: model; for patients with 75% improvement in EASI score: post-hoc analysis
# From the text: This was a multicenter (United States, Canada, and Japan), randomized, double-blind (Sponsor-unblind), vehicle-controlled, 6-arm, parallel-group, dose-finding study in adolescent and adult subjects with AD.
# The study consisted of 3 periods: up to 4 weeks screening, 12 weeks double-blind treatment, and 4 weeks post-treatment Follow-up. Study visits occurred at Screening; Baseline; Weeks 1, 2, 4, 8, and 12 during the treatment period; and 2 and 4 weeks after the last application of study treatment (i.e., at Weeks 14 and 16). Additional visits could occur, as needed, to follow-up on any skin reactions or ongoing AEs. A subject's total duration of study participation was approximately 16 to 20 weeks.
# Two concentrations of Tapinarof cream (0.5% and 1%) and a vehicle control were evaluated following application to all AD lesions (except on the scalp) once or twice daily for 12 weeks. There were no planned dose adjustments during the study. It was expected that approximately 270 adolescent and adult subjects with AD would be screened to achieve 228 randomized subjects (1:1:1:1:1:1; N=3 8 for each of the 6 treatment groups) and approximately 204 evaluable subjects overall. At least 30 subjects were to be randomized in Japan to achieve at least 24 evaluable Japanese subjects. To ensure an adequate number of adolescents (aged 12 to 17 years) versus adults were represented in the overall study population, enrollment was limited to approximately 65% of either age group.
# Efficacy was assessed by using a 5-point static Investigator Global Assessment (IGA) (0-4 scale), the Eczema Area and Severity Index (EASI), percent of body surface area (% BSA) involvement, severity of AD signs using a Total Severity Score (TSS), and by subject-reported itch/pruritus severity using a numeric rating scale (NRS) (from the Daily Sign and Symptom Severity Diary). Additional subject-reported outcomes included the expanded Patient-Oriented Eczema Measure (POEM), a Daily Sign and Symptom Severity Diary, and subject impression of severity of eczema symptoms and overall change in severity of eczema symptoms and overall change in itch/pruritus items. There was also an investigator global impression of change item.
# Investigator's Global Assessment: The IGA is a clinical tool for assessing the current state/severity of a subject's AD. It is a static 5-point morphological assessment of overall disease severity, as determined by the investigator, using the clinical characteristics of erythema, infiltration, papulation, oozing, and crusting as guidelines. At each specified time point, the IGA was made without reference to previous scores. Scoring system ranges from 0 (=Clear) to 4 (=Severe).
# Eczema Area and Severity Index: The EASI scoring system is a standard clinical tool for assessing the severity of AD that takes into account the overall severity of erythema, infiltration/papulation, excoriation, and lichenification, as well as the extent of BSA affected with AD. The 4 clinical signs are each graded on a 4-point scale (0 to 3) for each of the 4 specified body regions (head and neck, upper extremities, lower extremities, and trunk). The EASI is a static assessment made without reference to previous scores.
# Body Surface Area: The extent of BSA affected by AD is a general indicator of disease severity and was measured throughout the study. The extent of BSA to which study treatment was applied was also recorded. For the purpose of approximate clinical estimation, the total palmar surface of the palm plus 5 digits was assumed to be approximately equivalent to 1% BSA.
# Total Severity Score: A single target lesion that measured at least 3 cm at Screening and Baseline and was representative of subject disease, but not located on hands, feet or genitalia, was selected at Baseline to assess efficacy in treating a discrete area rather than an overall average of all areas. […]
# [1] = 0.5% BID, Week 8, interim analysis
# [2] = 0.5% QD, Week 8, interim analysis
# [3] = 1% BID, Week 8, interim analysis
# [4] = 1% QD, Week 8, interim analysis
structure (smiles),measurement,setting,value
"CC(C)c1c(O)cc(/C=C/c2ccccc2)cc1O [Tapinarof, 3,5-Dihydroxy-4-isopropyl-trans-stilbene]",EASI75 responders who maintained response from Week 12 to Week 16,0.5% BID,82%
same,difference in probability of achieving EASI75 vs vehicle,0.5% BID,42.6%
same,itch reduction in weekly average NRS (median),"0.5% BID, interim analysis",−53.00%
same,IGA response rate (IGA 0 or 1 and ≥2-grade improvement),[1],35%
same,subjects with 75% reduction in EASI from Baseline,[1],59%
same,difference in probability of IGA response vs vehicle,"0.5% BID, Week 12",22.4%
same,"expanded POEM item 8 (nights woken because of eczema), mean change","0.5% BID, Week 12",−1.3
same,patients with minimum three-point improvement in itch NRS,"0.5% BID, Week 12",33%
same,subjects reporting severity of AD symptoms as very improved,"0.5% BID, Week 12",47%
same,IGA response rate (IGA 0 or 1 and ≥2-grade improvement),"0.5% BID, Week 12, NRI",37%
same,probability of achieving EASI75,"0.5% BID, Week 12",54.2%
same,probability of achieving IGA treatment success,"0.5% BID, Week 12",28.7%
same,difference in probability of achieving EASI75 vs vehicle,0.5% QD,28.9%
same,itch reduction in weekly average NRS (median),"0.5% QD, interim analysis",−53.57%
same,IGA response rate (IGA 0 or 1 and ≥2-grade improvement),[2],40%
same,subjects with 75% reduction in EASI from Baseline,[2],35%
same,difference in probability of IGA response vs vehicle,"0.5% QD, Week 12",15.7%
same,"expanded POEM item 8 (nights woken because of eczema), mean change","0.5% QD, Week 12",−1.2
same,patients with minimum three-point improvement in itch NRS,"0.5% QD, Week 12",29%
same,subjects reporting severity of AD symptoms as very improved,"0.5% QD, Week 12",40%
same,IGA response rate (IGA 0 or 1 and ≥2-grade improvement),"0.5% QD, Week 12, NRI",34%
same,probability of achieving EASI75,"0.5% QD, Week 12",32.6%
same,probability of achieving IGA treatment success,"0.5% QD, Week 12",18.3%
same,proportion of subjects with IGA treatment success,"0.5% QD, Week 12, primary analysis",40%
same,subjects rating pruritus symptoms very improved or moderately improved,"0.5% groups, Week 12",80-81%
same,EASI75 responders who maintained response from Week 12 to Week 16,1% BID,63%
same,difference in probability of achieving EASI75 vs vehicle,1% BID,74.5%
same,itch reduction in weekly average NRS (median),"1% BID, interim analysis",−56.35%
same,IGA response rate (IGA 0 or 1 and ≥2-grade improvement),[3],35%
same,subjects with 75% reduction in EASI from Baseline,[3],45%
same,absolute change in percent BSA affected from baseline (mean),"1% BID, Week 12",11.2
same,difference in probability of IGA response vs vehicle,"1% BID, Week 12",61.5%
same,patients rating itch moderately improved to very improved,"1% BID, Week 12",78%
same,patients with minimum three-point improvement in itch NRS,"1% BID, Week 12",30%
same,reduction in total severity score (mean change),"1% BID, Week 12",5.8
same,subjects reporting severity of AD symptoms as very improved,"1% BID, Week 12",64%
same,IGA response rate (IGA 0 or 1 and ≥2-grade improvement),"1% BID, Week 12, NRI",53%
same,probability of achieving EASI75,"1% BID, Week 12",86.0%
same,probability of achieving IGA treatment success,"1% BID, Week 12",67.7%
same,patients with 75% improvement in EASI score,"1% BID, Week 12",60%
same,EASI75 responders who maintained response from Week 12 to Week 16,1% QD,57%
same,difference in probability of achieving EASI75 vs vehicle,1% QD,77.0%
same,itch reduction in weekly average NRS (median),"1% QD, interim analysis",−57.14%
same,IGA response rate (IGA 0 or 1 and ≥2-grade improvement),[4],74%
same,subjects with 75% reduction in EASI from Baseline,[4],63%
same,absolute change in percent BSA affected from baseline (mean),"1% QD, Week 12",11.6
same,difference in probability of IGA response vs vehicle,"1% QD, Week 12",60.1%
same,patients rating itch moderately improved to very improved,"1% QD, Week 12",86%
same,patients with minimum three-point improvement in itch NRS,"1% QD, Week 12",32%
same,reduction in total severity score (mean change),"1% QD, Week 12",5.5
same,subjects reporting severity of AD symptoms as very improved,"1% QD, Week 12",59%
same,IGA response rate (IGA 0 or 1 and ≥2-grade improvement),"1% QD, Week 12, NRI",46%
same,probability of achieving EASI75,"1% QD, Week 12",80.7%
same,probability of achieving IGA treatment success,"1% QD, Week 12",62.6%
same,patients with 75% improvement in EASI score,"1% QD, Week 12",51%
same,subjects rating pruritus symptoms very improved or moderately improved,"1% groups, Week 12",78-87%
same,subjects with minimum 3-point improvement in itch/pruritus,"Japanese population, 1% QD, Week 4 to Week 12",approximately 70%
same,subjects rating severity of itch very improved or moderately improved,"Tapinarof groups, Week 12",≥ 78%
same,subjects rating severity of eczema symptoms very improved or moderately improved,"active treatment groups, Week 12",> 80%
same,subjects rated by investigators as very improved or moderately improved,"adolescent population, active treatment groups",≥ 90%
